For assay [1], the system named is carrageenan-induced toe swelling in SD rats. Put plainly: Carrageenan-induced acute toe swelling in rats. The assay is classed as in vivo, rat. The arrangement: Swelling: unit not given here. The method, boiled down: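 SD rats dosed with mPEG-HM-1 once daily for 3 days […]; 1 h after last dose, 0.1 mL 1% carrageenan injected subcutaneously into right hind paw. Paw volume measured by liquid displacement at 1, 3, 5 and 7 h; swelling = post- minus pre-inflammation volume (mL).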

Assay [2] deals with retinal neovascular clusters in OIR C57/B16 mice. Put plainly: Retinal blood vessels in OIR mice. The assay is classed as in vivo, mouse. Conditions: for Neovascular clusters area: retina evaluated on day 17; for Inhibition rate: neovascular clusters area vs control, day 17. The method in brief: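 C57/B16 pups and mothers were held in 75% oxygen from postnatal day 7 to 12, then returned to room air. On day 13 the PEGylated HM-1 conjugates or saline were given by intravitreal injection; on day 17 retinal vessels were assessed after intracardiac Texas Red-tomato lectin, circulated 5 min.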

Assay [3] relates to Colorectal cancer tumor cells. Put plainly: MTT proliferation inhibition, colorectal cancer cells. The format is cell-based, human. The arrangement: concentration or dose not given beside the values. Conditions: 48 h. The method in brief: (§1)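 Tumour cells plated at 2×10^4 cells/mL, attached overnight, then exposed to dilutions of mPEG-HM-1 for 48 h at 37 °C, 5% CO2. MTT added 4 h, formazan dissolved in DMSO, absorbance 570/630 nm; growth inhibition = 1 − treated/untreated, three independent repeats, mean±SD.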

For assay [4], the system named is Esophageal cancer tumor cells. Put plainly: MTT proliferation inhibition, esophageal cancer cells. The arrangement: concentration or dose not given beside the values. The format is cell-based, human. To be noted: 48 h. The method in brief: as §1
Assay [5] concerns collagen induced arthritis (CIA) in DBA/1 mice. Put plainly: Collagen-induced mouse arthritis (CIA) model. The assay is classed as in vivo. To be noted: for Joint swelling / Left and right paw swelling / Clinical score: CIA DBA/1 mice; for Clinical score: maximum score 16.
The test system of assay [6] is choroidal neovascularization in BN rats. Put plainly: Laser-induced choroidal neovascularization in BN rats (FFA). The assay is classed as in vivo, rat. The method, boiled down: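 Male BN rats (6–8 weeks) received 8 laser photocoagulation spots per eye around the optic disc (647.1 nm, 350 mW, 50 μm, 0.05 s). Confirmed models, 5 per group, were given saline or PEG-modified HM-1 intravitreally once daily for 1 week. FFA was done 3, 7, 14 and 28 days after dosing.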

Setting [7] is: 40 mg/kg once a day for 3 days, 1 h after carrageenan.
[8] abbreviates: 40 mg/kg once a day for 3 days, 3 h after carrageenan.
Setting [9] is: 40 mg/kg once a day for 3 days, 5 h after carrageenan.
Setting [10] is: 40 mg/kg once a day for 3 days, 7 h after carrageenan.
The mark [11] stands for this setting: 100 μg intravitreal injection on day 13.
Setting [12] is: 40 mg/kg subcutaneous from day 30 of modeling.
Setting [13] is: Day 3 after administration, 100 μg intravitreally once daily for 1 week (Table 53).
The mark [14] stands for this setting: Day 3 after administration, 100 μg intravitreally once daily for 1 week (Table 53), total spots 290-296 by table.
[15] abbreviates: Day 7, 100 μg intravitreally once daily for 1 week (Table 53).
The mark [16] stands for this setting: Day 7, 100 μg intravitreally once daily for 1 week (Table 53), total spots 182-188 by table.
[17] abbreviates: Day 14, 100 μg intravitreally once daily for 1 week (Table 53).
Setting [18] is: Day 14, 100 μg intravitreally once daily for 1 week (Table 53), total spots 132-138 by table.
Setting [19] is: Day 28, 100 μg intravitreally once daily for 1 week (Table 53).
Where [20] appears, read: Day 28, 100 μg intravitreally once daily for 1 week (Table 53), total spots 67-71 by table.
Setting [21] is: 10 mg/kg subcutaneous from day 30 of modeling.

Marks after values point to notes of the source that are not given here. Where no end group is shown, it is not given here.

As for “mPEG-SC20k-Arg-Gly-Ala-Asp-Arg-Ala-Gly-Gly-Gly-Gly-Arg-Gly-Asp ({mPEG‑SC 20 kDa}-RGADRAGGGGRGD) [mPEG-SC20k-HM-1]”, the Swelling was 0.28 ± 0.14 in assay [1] (setting [7]); 0.35 ± 0.17 in assay [1] (setting [8]); 0.42 ± 0.15 in assay [1] (setting [9]); 0.37 ± 0.16 in assay [1] (setting [10]); 0.26 ± 0.10 in assay [1] (80 mg/kg once a day for 3 days, 1 h after carrageenan); 0.33 ± 0.12 in assay [1] (80 mg/kg once a day for 3 days, 3 h after carrageenan). In addition, the Swelling in assay [1] (80 mg/kg once a day for 3 days, 5 h after carrageenan) was determined as 0.40 ± 0.13; in assay [1] (80 mg/kg once a day for 3 days, 7 h after carrageenan), 0.32 ± 0.17. Moreover, the “inhibition of carrageenan-induced toe swelling (in words)” value in assay [1] (rats, 80 mg/kg, once a day for 3 days) is “most effective”. Also, in assay [2] (setting [11]), the Neovascular clusters area is 0.110 ± 0.010 mm^2. This substance also registered an Inhibition rate in assay [2] (100 μg intravitreal) of 50.23%**. Moreover, the “rate of growth inhibition” value in assay [3] was determined as 66.19 ± 20.58%; in assay [4] it was 55.51 ± 16.22%. In assay [5] (setting [12]), this substance gave a Joint swelling of 0.76 ± 0.12 mm. The “Left and right paw swelling” value in assay [5] (setting [12]) was 0.72 ± 0.15 mm. The substance further gave a Clinical score in assay [5] (setting [12]) of 9.00 ± 1.25. Further, the “limbs score (in words)” value in assay [5] (CIA mice, subcutaneous, once every three days, vs model control group) is recorded as “significantly lower than that of the model control group”. Further, the “CNV Incidence rate” value in assay [6] (setting [13]) is 51.35%; in assay [6] (setting [15]), 48.94%; in assay [6] (setting [17]) it was 45.93%; in assay [6] (setting [19]), 41.79%. In addition, the “leakage Spots #” value came to 152 in assay [6] (setting [14]), 92 in assay [6] (setting [16]), 62 in assay [6] (setting [18]) and 28 in assay [6] (setting [20]).

“mPEG2-NHS5k-Arg-Gly-Ala-Asp-Arg-Ala-Gly-Gly-Gly-Gly-Arg-Gly-Asp ({mPEG2‑NHS 5 kDa}-RGADRAGGGGRGD) [mPEG2-NHS5k-HM-1]”: the Swelling turned out to be 0.25 ± 0.13 in assay [1] (10 mg/kg once a day for 3 days, 1 h after carrageenan); 0.36 ± 0.12 in assay [1] (10 mg/kg once a day for 3 days, 3 h after carrageenan); 0.43 ± 0.17 in assay [1] (10 mg/kg once a day for 3 days, 5 h after carrageenan); 0.31 ± 0.15 in assay [1] (10 mg/kg once a day for 3 days, 7 h after carrageenan); 0.22 ± 0.11 in assay [1] (20 mg/kg once a day for 3 days, 1 h after carrageenan); 0.32 ± 0.21 in assay [1] (20 mg/kg once a day for 3 days, 3 h after carrageenan). Further, the Swelling in assay [1] (20 mg/kg once a day for 3 days, 5 h after carrageenan) is recorded as 0.36 ± 0.12; in assay [1] (20 mg/kg once a day for 3 days, 7 h after carrageenan) it was 0.32 ± 0.16. The substance also displayed a Neovascular clusters area in assay [2] (25 μg intravitreal injection on day 13) of 0.119 ± 0.007 mm^2. In assay [2] (25 μg intravitreal), the Inhibition rate was found to be 46.35%*. The “rate of growth inhibition” value in assay [3] came out at 52.37 ± 12.24%; in assay [4] it was 41.35 ± 11.32%. In assay [5] (setting [21]), the Joint swelling is listed as 0.78 ± 0.12 mm. The “Left and right paw swelling” value in assay [5] (setting [21]) was 0.76 ± 0.11 mm. Moreover, in assay [5] (setting [21]), the Clinical score stood at 9.01 ± 1.28. Moreover, the “CNV Incidence rate” value in assay [6] (Day 3 after administration, 25 μg intravitreally once daily for 1 week (Table 53)) came to 56.12%; in assay [6] (Day 7, 25 μg intravitreally once daily for 1 week (Table 53)), 55.49%; in assay [6] (Day 14, 25 μg intravitreally once daily for 1 week (Table 53)), 45.99%; in assay [6] (Day 28, 25 μg intravitreally once daily for 1 week (Table 53)) it was 48.53%. Besides, the “leakage Spots #” value in assay [6] (Day 3 after administration, 25 μg intravitreally once daily for 1 week (Table 53), total spots 290-296 by table) came out at 165; in assay [6] (Day 7, 25 μg intravitreally once daily for 1 week (Table 53), total spots 182-188 by table), 101; in assay [6] (Day 14, 25 μg intravitreally once daily for 1 week (Table 53), total spots 132-138 by table) it was 63; in assay [6] (Day 28, 25 μg intravitreally once daily for 1 week (Table 53), total spots 67-71 by table), 33.

In the case of “mPEG-bALD20k-Arg-Gly-Ala-Asp-Arg-Ala-Gly-Gly-Gly-Gly-Arg-Gly-Asp ({mPEG‑bALD 20 kDa}-RGADRAGGGGRGD) [mPEG-bALD20k-HM-1]”, the Swelling came to 0.25 ± 0.15 in assay [1] (setting [7]), 0.35 ± 0.14 in assay [1] (setting [8]), 0.42 ± 0.15 in assay [1] (setting [9]) and 0.36 ± 0.18 in assay [1] (setting [10]). In assay [2] (setting [11]), this substance registered a Neovascular clusters area of 0.097 ± 0.011 mm^2. The Inhibition rate in assay [2] (100 μg intravitreal) is recorded as 56.22%**. For the same substance, the “rate of growth inhibition” value in assay [3] came out at 70.73 ± 16.92%; in assay [4], 60.56 ± 14.72%. In assay [5] (setting [12]), the Joint swelling is reported as 0.73 ± 0.15 mm. In addition, the “Left and right paw swelling” value in assay [5] (setting [12]) stood at 0.75 ± 0.11 mm. Further, the Clinical score in assay [5] (setting [12]) is 8.67 ± 1.32. Further, the “CNV Incidence rate” value in assay [6] (setting [13]) is given as 51.54%; in assay [6] (setting [15]) it was 49.19%; in assay [6] (setting [17]) it was 45.65%; in assay [6] (setting [19]), 40.58%. Besides, the “leakage Spots #” value was 151 in assay [6] (setting [14]), 91 in assay [6] (setting [16]), 63 in assay [6] (setting [18]) and 28 in assay [6] (setting [20]).

The values above are taken from patent US10869931B2, “Polyethylene glycol-modified angiogenesis inhibitor HM-1 and application thereof” (NANJING ANJI BIOLOGICAL TECHNOLOGY CO.,LTD, priority 2016, dated 2020).
